The text below walks through data of patent publication US8138207B2, “Aminocarbonyl-substituted 8-N-benzimidazoles, methods for their preparation and their use in pharmaceutical compositions” (Sanofi-Aventis, priority 2005, dated 2012).

This experiment concerns the target T1, DPP-IV from porcine kidneys (Sus scrofa, UniProt P22411).
T1 construct: DPP-IV from porcine kidneys (Sigma, Munich); purchased Sigma, Munich; host or cells: porcine kidney tissue
Kind of experiment: Measurement of the DPP-IV activity (fluorimetric, H-Ala-Pro-AFC substrate). It is filed as biochemical. The note with it: substrate H-Ala-Pro-AFC 15 μM, Tris/HCl pH 7.4, room temperature. As to the method: Measurement of the DPP-IV Activity:
DPP-IV from porcine kidneys (Sigma, Munich)
H-Ala-Pro-AFC (Bachem, Weil am Rhein)
DPP-IV (1 mU/ml, end concentration)
H-Ala-Pro-AFC (15 μm end concentration)
in Tris/HCl (40 mM, pH 7.4), total volume 0.2 ml
The reaction was performed at room temperature for different periods (typically 10 minutes) and stopped at the end of the reaction by adding 20 μl of ZnCl2 (1 M). The conversion of H-Ala-Pro-AFC was determined fluorimetrically by measuring the emission at 535 nm on excitation at 405 nm. In the case of addition of inhibitors, the buffer volume added was adjusted such that a total volume of the test mixture of 200 μl maintained.
% inhibition at a fixed concentration was calculated as follows: (1-enzyme activityinhibited reaction/enzyme activityuninhibited reaction)×100
IC50 values for inhibitors were determined by varying the inhibitor concentrations in the case of the specified substrate concentration of 15 μM. Ki and Km values were determined by corresponding variation of substrate and inhibitor concentration as described (Dixon, M. and Webb, E. C. (1979) Enzymes, third edition, pp. 47-206, Academic Press). The values for Km, IC50 and Ki were calculated using a commercially available software package (Leatherbarrow, R. J. (1992) GraFit Version 3.0, Erithacus Software Ltd. Staines, U.K.).

The structures appear in SMILES notation. Counter-ions that a name gives are not always drawn.

T1 sequence (P22411 whole entry): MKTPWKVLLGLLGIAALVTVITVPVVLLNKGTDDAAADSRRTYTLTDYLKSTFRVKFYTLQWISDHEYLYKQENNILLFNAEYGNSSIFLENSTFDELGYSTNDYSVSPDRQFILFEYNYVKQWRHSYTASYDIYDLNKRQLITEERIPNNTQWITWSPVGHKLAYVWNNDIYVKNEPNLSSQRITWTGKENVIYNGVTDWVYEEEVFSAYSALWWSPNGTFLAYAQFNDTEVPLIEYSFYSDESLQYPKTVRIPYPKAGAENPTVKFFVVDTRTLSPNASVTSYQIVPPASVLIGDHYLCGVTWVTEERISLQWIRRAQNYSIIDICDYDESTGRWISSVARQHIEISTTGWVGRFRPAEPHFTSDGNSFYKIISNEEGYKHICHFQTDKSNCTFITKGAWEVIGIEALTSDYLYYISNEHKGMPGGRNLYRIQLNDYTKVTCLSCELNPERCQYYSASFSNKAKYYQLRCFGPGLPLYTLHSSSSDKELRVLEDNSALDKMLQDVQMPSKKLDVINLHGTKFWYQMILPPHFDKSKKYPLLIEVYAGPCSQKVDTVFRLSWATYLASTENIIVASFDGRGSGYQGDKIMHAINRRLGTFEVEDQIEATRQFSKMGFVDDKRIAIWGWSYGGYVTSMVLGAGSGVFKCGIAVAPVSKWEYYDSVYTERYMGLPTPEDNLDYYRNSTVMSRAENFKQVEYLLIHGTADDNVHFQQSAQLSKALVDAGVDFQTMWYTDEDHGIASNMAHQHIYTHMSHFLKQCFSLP

Regarding `CC(C)=CCn1c(N2CCC[C@@H](N)C2)nc2ccc(NC(=O)c3ccccc3)cc21` [Example 1, R—N-[2-(3-Aminopiperidin-1-yl)-1-(3-methylbut-2-enyl)-1H-benzimidazol-6-yl]-benzamide trifluoroacetic acid salt], the IC50 stood at 2500 nM.

On to `CC(C)=CCn1c(N2CCC[C@@H](N)C2)nc2ccc(NC(=O)Cc3ccccc3)cc21` [Example 2], for which the IC50 turned out to be 2700 nM.
